# Experimental data published in patent US11980772B2, “Method of photodynamic therapy (PDT) for bladder cancer” (priority 2015, dated 2024).
# Where “and” joins values, the source holds several entries; their conditions need not be identical. Equal values may be shown once. Entries after “also recorded” stand apart in the source; their conditions may differ.
# Legend:
# bladder cancer [1] = conditions: 5-ALA PDT after mitomycin, red laser light 635 nm, 18 mW/cm^2; cited from earlier work
# bladder cancer [2] = conditions: 5-ALA instilled, red light 633 nm, 30 and 50 J/cm^2; cited from earlier work
# bladder cancer [3] = conditions: cited from earlier work
# MIBC = conditions: neoadjuvant cisplatin-containing chemotherapy; cited from earlier work
# [4] = test system: patient-derived bladder tumor; assay: Establishing in vitro primary cell cultures from bladder tumors resected after HAL/blue light TUR; format: cell-based, human; conditions: HAL/blue light group; blue light 1.5 to 12.5 mW/cm^2, 0.2 to 15.0 J/cm^2
# Procedure: A solution of HAL (Hexvix®) was instilled into the bladder of patients through a catheter and was left in the bladder for about 1 hour. If the patient could not retain the composition for about 1 hour, at least about 1 hour was allowed to pass from the instillation of Hexvix® to the start of exposing the inside of the bladder to light. After evacuation of Hexvix®, a commercially available blue-light cystoscope was inserted into the bladder and a TUR was carried out by exposing the inside of the bladder to white light for the visual inspection, subsequent blue light exposure for fluorescence detection of bladder cancer lesions, resection of the detected lesions under white light and monitoring of the completeness of the resection by use of blue light. Blue light was provided at a fluence rate of 1.5 to 12.5 mW/cm^2 and a light dose of 0.2 to 15.0 J/cm^2 […] at a fluence rate of 3.0 to 22.0 mW/cm^2 and a light dose of 0.4 to 26.5 J/cm^2.
# The resected bladder tumors were processed according to methods known in the art and primary cell cultures were established from said patient-derived bladder tumor under appropriate conditions in culture medium. […]
# [5] = test system: non-muscle invasive papillary bladder cancer (NMIBC); assay: Phase III multicenter study, tumor recurrence after HAL blue light cystoscopy/TUR; format: in vivo, human; conditions: 9 months follow-up; for Tumor recurrence rate, All: HAL group (n = 271)
# Procedure: A prospective, randomized, comparative, controlled phase III multicenter study was carried out in patients with non-muscle invasive papillary bladder cancer (NMIBC). The study population comprised 551 patients which were randomized into two groups (see below). The groups were similar in age, gender, race, bladder cancer history and prior intravesical therapy.
# HAL group: 271 patients. The method of the invention was carried out as follows: A solution of HAL (Hexvix®) was instilled into the bladder of patients through a catheter and was left in the bladder for about 1 hour. If the patient could not retain the composition for about 1 hour, at least about 1 hour was allowed to pass from the instillation of Hexvix® to the start of exposing the inside of the bladder to light.
# After evacuation of Hexvix®, cystoscopy was carried out with a commercially available cystoscope (blue and white light). The inside of the bladder was first exposed to white light and visually assessed, followed by exposure to blue light to detect cancerous lesions in the bladder. Transurethral resection (TUR) of the detected lesions was carried out under white light and completion of the resection was assessed under blue light.
# White light group: 280 patients. Cystoscopy and TUR of bladder cancer under white light only, no HAL.
# Patients from both groups with histologically confirmed Ta or T1 lesions were followed up by white light cystoscopy after 3, 6 and 9 months. All tumor recurrences during the 9 months follow-up period were histologically confirmed.
# 50 patients in the HAL group (18.5%) and 55 patients in the white light group (19.6%) received BCG treatment during the 9 months follow-up period. BCG (Bacillus Calmette-Guérin) is an immunotherapy agent for the treatment of bladder cancer. It is usually repeatedly instilled into the bladder.
# Mitomycin is a chemotherapeutic agent for the treatment of bladder cancer. It may be instilled after TUR (single instillation) to e.g. prevent tumor cell seeding, i.e. re-attachment to the bladder wall of tumor cells which were dislocated during resection. Mitomycin was administered after TUR to 16 patients in the HAL group (5.9%) and to 20 patients in the white light group (7.1%).
# bladder cancer [6] = conditions: cited from earlier work; remark: listed apart in the source
# bladder cancer [7] = conditions: patients with HAL-guided TUR prior to cystectomy, Kaplan-Meier, cited from earlier work
# [8] = test system: superficial bladder tumors (rat bladder carcinoma cell line); assay: PDT with HAL and blue light in orthotopic rat bladder tumor model; format: in vivo; conditions: HAL 2 mg/ml (8 mM), 1 hour
# Procedure: A rat bladder carcinoma cell line was used in these experiments to establish superficial bladder tumors in Female Fischer rats weighing 150-175 g as described in Francois, et al., J. Urol. 190(2), 2013, 731-736. The animals were used in the experiments 5 days after tumor cell inoculation.
# Lyophilized HAL (in the form of Hexvix® powder) was dissolved in PBS to a final concentration of 2 mg/ml (8 mM). 0.5 ml of the solution was instilled into the rat bladder and was left in the bladder for about 1 hour. After evacuation of the HAL solution, 0.5 ml of PBS was instilled into the bladder and whole bladder irradiation with blue light at a fluence rate of 3.5 or 7.0 mW/cm^2 was performed using a 170 mW Modulight laser model ML 6500-405 delivering light at a wavelength of 401 nm, coupled to a fiber with a cylindrical diffuser (1×5 mm) model RD05/500/800 (Medlight, Ecublens, Switzerland) placed in a central position in the bladder. Rats received a blue light dose of 4.0 J/cm^2 (fluence rate 3.5 mW/cm^2) or 7.5 J/cm^2 (fluence rate 7.0 mW/cm^2)
# For control, no Hexvix was instilled and only blue light irradiation was carried out at the aforementioned fluence rates/light doses.
# The rats were sacrificed 48 hours after illumination by an overdose of pentobarbital. […]
smiles,measurement,setting,value
"NCC(=O)CCC(=O)O [5-ALA, 5-aminolevulinic acid]",light dose considered the upper limit of tolerability in terms of side effects,bladder cancer [1],25 J/cm^2
same,patients whose irritating urinary symptoms did not resolve before 2 weeks,bladder cancer [2],13%
same,"side effects in the form of irritating urinary symptoms, occurrence",bladder cancer [2],occurred in all patients
same,"complaints of urinary frequency and urgency, occurrence","bladder cancer [3]; 5-ALA, white light 100 J/cm^2, 12 patients treated",all patients complained about urinary frequency and urgency
same,patients whose symptoms persisted for 3 weeks,bladder cancer [3]; of 12 patients treated,5 patients
same,patients whose symptoms subsided within a week,bladder cancer [3]; of 12 patients treated,7 patients
N.N.[Cl][Pt][Cl] [cisplatin],absolute improvement in survival at 5 years,MIBC,5%
"CCCCCCOC(=O)CCC(=O)CN [HAL, n-hexyl 5-amino-4-oxo-pentanoate]",establishment of in vitro primary cell cultures from resected bladder tumors,[4],No in vitro primary cell cultures could be established
same,"Tumor recurrence rate, All",[5]; Table 1 and text,42.7% and 47.2%
same,"Tumor recurrence rate, All",[5]; Table 2,47.2%
same,"Tumor recurrence rate, Received BCG and/or mitomycin",[5]; HAL group,41.5%
same,"Tumor recurrence rate, Received no BCG and/or mitomycin",[5]; HAL group,49.0%
same,"Tumor recurrence rate, No BCG","[5]; HAL group, patients who did not receive BCG",49.3%
same,"Tumor recurrence rate, Received BCG","[5]; HAL group, patients who received BCG",38.0%
same,patients tumor-free at 21 months,bladder cancer [6]; 2 of 17 patients,11.8%
same,patients tumor-free at 9 months,bladder cancer [6]; 4 of 17 patients,23.5%
same,patients with severe adverse effects,bladder cancer [6]; 4 patients of 17,23.5%
same,patients tumor-free at 6 months,bladder cancer [6]; 9 of 17 patients,52.9%
same,number of adverse effects reported,"bladder cancer [6]; HAL 8 mM and 16 mM, white light 25-100 J/cm^2, 3 PDTs, 17 patients",128
same,patients with adverse effects,"bladder cancer [6]; HAL 8 mM and 16 mM, white light, 3 PDTs",about 88%
same,number of severe adverse effects reported,"bladder cancer [6]; in 4 patients, 2 considered to relate to the PDT",7
same,3-year overall survival (OS),bladder cancer [7]; 56.6% with white light,65.0%
same,3-year recurrence-free survival (RFS),bladder cancer [7]; 58.2% with white light TUR alone,69.8%
same,bladder histology 48 hours after illumination (PDT effect),"[8]; blue light 3.5 mW/cm^2, 4 J/cm^2, n=2, one animal (50%) each","no inflammation, persistent and chorion infiltrating tumors; also recorded: looked less compact and the superficial layer of said tumor was destroyed"
same,bladder histology 48 hours after illumination (PDT effect),"[8]; blue light 7.0 mW/cm^2, 7.5 J/cm^2, n=2",increased tissue thickness/inflammation (both signs of PDT effect) and disintegrating/less compact tumor tissue
